The source of these data is patent US7875645B2, “Method for the treatment of CNS disorders with substituted 2-imidazoles or imidazole derivatives” (Hoffman-La Roche Inc., priority 2006, dated 2011).

The target of one data set is T1, TAAR1 (Mus musculus, UniProt Q923Y8).
T1 construct: expressed in transfected cells; host or cells: HEK293 (ATCC # CRL-1573), stably transfected with pIRESneo2 expression plasmid; membranes prepared
Kind of data set: Radioligand binding assay on membranes of HEK293 cells stably expressing TAAR1. The note with it: mouse TAAR1; radioligand [3H]-rac-2-(1,2,3,4-tetrahydro-1-naphthyl)-2-imidazoline at 60 nM; 4° C., 30 min. How it is done: For the construction of expression plasmids the coding sequences of human, rat and mouse TAAR 1 were amplified from genomic DNA essentially as described by Lindemann et al.. The Expand High Fidelity PCR System (Roche Diagnostics) was used with 1.5 mM Mg^2+ and purified PCR products were cloned into pCR2.1-TOPO cloning vector (Invitrogen) following the instructions of the manufacturer. PCR products were subcloned into the pIRESneo2 vector (BD Clontech, Palo Alto, Calif.), and expression vectors were sequence verified before introduction in cell lines.
For the generation of stably transfected cell lines HEK293 cells were transfected with the pIRESneo2 expression plasmids containing the TAAR coding sequences (described above) with Lipofectamine 2000 (Invitrogen) according to the instructions of the manufacturer, and 24 hrs post transfection the culture medium was supplemented with 1 mg/ml G418 (Sigma, Buchs, Switzerland). After a culture period of about 10 d clones were isolated, expanded and tested for responsiveness to trace amines (all compounds purchased from Sigma) with the cAMP Biotrak Enzyme immunoassay (EIA) System (Amersham) following the non-acetylation EIA procedure provided by the manufacturer.
Cells at confluence were rinsed with ice-cold phosphate buffered saline without Ca^2+ and Mg^2+ containing 10 mM EDTA and pelleted by centrifugation at 1000 rpm for 5 min at 4° C. The pellet was then washed twice with ice-cold phosphate buffered saline and cell pellet was frozen immediately by immersion in liquid nitrogen and stored until use at −80° C. Cell pellet was then suspended in 20 ml HEPES-NaOH (20 mM), pH 7.4 containing 10 mM EDTA, and homogenized with a Polytron (PT 3000, Kinematica) at 10,000 rpm for 10 s. The homogenate was centrifuged at 48,000×g for 30 min at 4° C. and the pellet resuspended in 20 ml HEPES-NaOH (20 mM), pH 7.4 containing 0.1 mM EDTA (buffer A), and homogenized with a Polytron at 10,000 rpm for 10 s. The homogenate was then centrifuged at 48,000×g for 30 min at 4° C. and the pellet resuspended in 20 ml buffer A, and homogenized with a Polytron at 10,000 rpm for 10 s. Protein concentration was determined by the method of Pierce (Rockford, Ill.). The homogenate was then centrifuged at 48,000×g for 10 min at 4° C., resuspended in HEPES-NaOH (20 mM), pH 7.0 including MgCl2 (10 mM) and […] homogenized with a Polytron at 10,000 rpm for 10 s.
Binding assay was performed at 4° C. in a final volume of 1 ml, and with an incubation time of 30 min. […] Non-specific binding was defined as the amount of [^3H]-rac-2-(1,2,3,4-tetrahydro-1-naphthyl)-2-imidazoline bound in the presence of the appropriate unlabelled ligand (10 μM). Competing ligands were tested in a wide range of concentrations (10 pM-30 μM). […] Each experiment was performed in duplicate. Al incubations were terminated by rapid filtration through UniFilter-96 plates (Packard Instrument Company) and glass filter GF/C, pre-soaked for at least 2 h in polyethylenimine 0.3%, and using a Filtermate 96 Cell Harvester (Packard Instrument Company). The tubes and filters were then washed 3 times with 1 ml aliquots of cold buffer B. Filters were not dried and soaked in Ultima gold (45 μl/well, Packard Instrument Company) and bound radioactivity was counted by a TopCount Microplate Scintillation Counter (Packard Instrument Company).

The structures appear in SMILES notation. Where a name gives a salt, the structure may show the parent alone.

T1 sequence (Q923Y8 whole entry): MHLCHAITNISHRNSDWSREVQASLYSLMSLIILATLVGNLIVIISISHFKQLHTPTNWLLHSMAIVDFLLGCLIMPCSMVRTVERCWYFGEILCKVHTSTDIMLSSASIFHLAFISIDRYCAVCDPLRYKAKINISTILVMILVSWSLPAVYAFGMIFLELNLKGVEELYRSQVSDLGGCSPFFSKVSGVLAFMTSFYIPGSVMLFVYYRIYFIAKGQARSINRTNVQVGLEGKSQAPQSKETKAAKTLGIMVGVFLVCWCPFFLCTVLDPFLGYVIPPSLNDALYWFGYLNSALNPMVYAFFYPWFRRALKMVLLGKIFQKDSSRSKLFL

Regarding `CCc1ccc(F)c(CC)c1Cc1ncc[nH]1` [Example 202, 2-(2,6-Diethyl-3-fluoro-benzyl)-1H-imidazole], the affinity at TAAR1 corresponds to a Ki of 0.034 µM.
Same read-out and setting: the figure for `c1cc(CC2=NCCN2)c2occc2c1` [Example 107, 2-Benzofuran-7-ylmethyl-4,5-dihydro-1H-imidazole] is 0.022 µM.
On the same count and under the same terms, under `CCOc1ccc(CC)c(Cc2ncc[nH]2)c1CC` [Example 217, 2-(3-Ethoxy-2,6-diethyl-benzyl)-1H-imidazole] stands 0.024 µM.
Compound `Brc1ccc(CC2=NCCN2)c2ccccc12` [Example 104, 2-(4-Bromo-naphthalen-1-ylmethyl)-4,5-dihydro-1H-imidazole] had a melting point of 133 to 135 °C. In addition, the inhibitory constant (Ki) on TAAR1 is 0.008 µM.
In turn, `CC(C1=NCCN1)c1ccc(Cc2ccccc2)cc1` (racemic) [Example 158, rac-2-[1-(4-Benzyl-phenyl)-ethyl]-4,5-dihydro-1H-imidazole hydrochloride] displayed a Ki on TAAR1 of 0.021 µM.
Consider `Cc1cc(C)c(Cc2ncc[nH]2)c(C)c1` [Example 137, 2-(2,4,6-Trimethyl-benzyl)-1H-imidazole], for which the Ki at TAAR1 turned out to be 0.038 µM.
In turn, `CCc1cccc(C)c1CC1=NCCN1` [Example 11, 2-(2-Ethyl-6-methyl-benzyl)-4,5-dihydro-1H-imidazole] came in with a Ki at TAAR1 of 0.007 µM.
Same read-out and setting: under `CCc1ccc(OC)c(CC)c1CC1=NCCN1` [Example 206, 2-(2,6-Diethyl-3-methoxy-benzyl)-4,5-dihydro-1H-imidazole] stands 0.038 µM.
On the same count and under the same terms, under `CCc1ccc(Br)c(CC)c1Cc1ncc[nH]1` [Example 77, 2-(3-Bromo-2,6-diethyl-benzyl)-1H-imidazole] stands 0.026 µM; under `c1cc(CC2=NCCN2)c2ccoc2c1` [Example 168, 2-Benzofuran-4-ylmethyl-4,5-dihydro-1H-imidazole hydrochloride], 0.045 µM; under `CCc1c(Cl)ccc(F)c1CC1=NCCN1` [Example 198, 2-(3-Chloro-2-ethyl-6-fluoro-benzyl)-4,5-dihydro-1H-imidazole], 0.036 µM.
Same read-out and setting: under `Cc1cc(C)c(C)c(CC2=NCCN2)c1C` [Example 116, 2-(2,3,5,6-Tetramethyl-benzyl)-4,5-dihydro-1H-imidazole] stands 0.008 µM; under `[3H]c1ccc(CC)c(Cc2ncc[nH]2)c1CC` [Example 112, 2-(2,6-Diethyl-3-tritio-benzyl)-1H-imidazole], 0.025 µM.
With `COc1cc(C)c(CC2=NCCN2)c(C)c1` [Example 123, 2-(4-Methoxy-2,6-dimethyl-benzyl)-4,5-dihydro-1H-imidazole], the affinity on TAAR1 corresponds to a Ki of 0.028 µM.
Same read-out and setting: under `CCc1cc(OC)cc(CC)c1Cc1ncc[nH]1` [Example 210, 2-(2,6-Diethyl-4-methoxy-benzyl)-1H-imidazole] stands 0.048 µM; under `COc1cc(C)c(CC2=NCCN2)cc1C` [Example 33, 2-(4-Methoxy-2,5-dimethyl-benzyl)-4,5-dihydro-1H-imidazole hydrochloride], 0.014 µM; under `COc1cc(C)c(Cc2ncc[nH]2)c(C)c1` [Example 73, 2-(4-Methoxy-2,6-dimethyl-benzyl)-1H-imidazole], 0.049 µM.
The same measure, in the same setting: under `CCc1ccc(Br)c(CC)c1CC1=NCCN1` [Example 32, 2-(3-Bromo-2,6-diethyl-benzyl)-4,5-dihydro-1H-imidazole] stands 0.005 µM; under `Cc1cc(C(C)(C)C)cc(C)c1CC1=NCCN1` [Example 114, 2-(4-tert-Butyl-2,6-dimethyl-benzyl)-4,5-dihydro-1H-imidazole, reference compound], 0.006 µM.
Still for that read-out and setting: the figure for `Clc1ccc(CC2=NCCN2)cc1Cl` [Example 121, 2-(3,4-Dichloro-benzyl)-4,5-dihydro-1H-imidazole] is 0.023 µM; for `Cc1sc(C)c(CC2=NCCN2)c1C` [Example 109, 2-(2,4,5-Trimethyl-thiophen-3-ylmethyl)-4,5-dihydro-1H-imidazole] it is 0.004 µM.
